Source: patent US9156827B2, “Anticancer agent” (THE UNIVERSITY OF TOKYO, priority 2010, dated 2015)
Structures can show the parent of a compound that is named as a salt.

Target: pim-1 kinase (Homo sapiens, UniProt P11309)
Assay: Measurement of pim-1 kinase inhibitory activity (fluorescent substrate peptide, capillary electrophoresis)
Assay type: biochemical
Conditions: 0.1 μM of each compound, 30 μM ATP, 1.5 μM substrate peptide, room temperature 2 hours
Protocol: Measurement of Pim-1 Kinase Inhibitory Activity
The result of the reaction was determined by quantifying the substrate and the phosphorylated reaction product separated by capillary electrophoresis based on difference in charges of the substances (EZ Reader II, Caliper Life Sciences, was used).

Chain of pim-1 kinase (P11309 whole entry): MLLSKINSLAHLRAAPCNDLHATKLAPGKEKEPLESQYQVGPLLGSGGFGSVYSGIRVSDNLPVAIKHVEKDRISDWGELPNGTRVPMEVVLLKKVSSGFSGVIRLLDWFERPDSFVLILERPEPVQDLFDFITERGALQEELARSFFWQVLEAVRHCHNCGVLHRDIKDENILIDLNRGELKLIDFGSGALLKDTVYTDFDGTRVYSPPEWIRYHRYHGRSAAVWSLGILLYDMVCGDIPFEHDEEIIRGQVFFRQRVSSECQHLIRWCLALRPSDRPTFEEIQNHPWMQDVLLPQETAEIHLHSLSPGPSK

| inhibition at 0.1 µM (Table 1) [%] | inhibition at 0.1 µM (Table 2) [%] | SMILES | also measured |
| --- | --- | --- | --- |
|  |  | O=C1/C(=C/c2n[nH]c3ccccc23)Oc2c1ccc(OCc1ccccc1)c2CN1CCNCC1 [Compound B28, (Z)-2-[(1H-Indazol-3-yl)methylene]-6-(benzyloxy)-7-(piperazin-ylmethyl)benzofuran-3(2H)-one] | Pim-1 kinase inhibitory activity (%) (Table 2): 92% |
| 101 |  | O=C1/C(=C/c2c[nH]c3ncc(Br)cc23)Oc2c1ccc(O)c2CN1CCNCC1 [Compound A52, (Z)-2-[(5-Bromo-1H-pyrrolo[2,3-b]pyridin-3-yl)methylene]-6-hydroxy-7-(piperazin-1-ylmethyl)benzofuran-3(2H)-one trihydrochloride] |  |
| 16 |  | O=C1/C(=C/c2c[nH]c3nc(-c4ccccc4)ccc23)Oc2c1ccc(O)c2CN1CCNCC1 [Compound A49, (Z)-6-Hydroxy-2-[(6-phenyl-1H-pyrrolo[2,3-b]pyridin-3-yl)methylene]-7-(piperazin-1-ylmethyl)benzofuran-3(2H)-one trihydrochloride] |  |
|  | 94 | O=C1/C(=C/c2n[nH]c3ccc(Br)cc23)Oc2c1ccc(O)c2CN1CCNCC1 [Compound B10, (Z)-6-Hydroxy-7-(piperazin-1-ylmethyl)-2-[(5-bromo-1H-indazol-3-yl)methylene]benzofuran-3(2H)-one] |  |
|  | 49 | O=C1CN(Cc2c(O)ccc3c2O/C(=C\c2n[nH]c4ccccc24)C3=O)CCN1 [Compound B6, (Z)-4-({2-[(1H-Indazol-3-yl)methylene]-6-hydroxy-3-oxo-2,3-dihydrobenzofuran-7-yl}methyl)piperazin-2-one] |  |
|  | 80 | O=C1/C(=C/c2n[nH]c3ccc(F)cc23)Oc2c1cc(Cl)c(O)c2CN1CCNCC1 [Compound B14, (Z)-5-Chloro-2-[(5-fluoro-1H-indazol-3-yl)methylene]-6-hydroxy-7-(piperazin-1-ylmethyl)benzofuran-3(2H)-one] |  |
| 94 |  | C#Cc1ccc2c(/C=C3\Oc4c(ccc(O)c4CN4CCNCC4)C3=O)c[nH]c2n1 [Compound A50, (Z)-2-[(6-Ethynyl-1H-pyrrolo[2,3-b]pyridin-3-yl)methylene]-6-hydroxy-7-(piperazin-1-ylmethyl)benzofuran-3(2H)-one trihydrochloride] |  |
| 96 |  | O=C1/C(=C/c2c[nH]c3ncccc23)Oc2c1ccc(O)c2CN1CCNCC1 [Compound A42, (Z)-2-[(1H-Pyrrolo[2,3-b]pyridin-3-yl)methylene]-6-hydroxy-7-(piperazin-1-ylmethyl)benzofuran-3(2H)-one trihydrochloride] |  |
| 94 |  | O=C1/C(=C/c2c[nH]c3ccc(Cl)cc23)Oc2c1ccc(O)c2CN1CCNCC1 [Compound A21, (Z)-2-[(5-Chloro-1H-indol-3-yl)methylene]-6-hydroxy-7-(piperazin-1-ylmethyl)benzofuran-3(2H)-one dihydrochloride] |  |
| 62 |  | O=C1/C(=C/c2c[nH]c3ccc(OCCN4CCOCC4)cc23)Oc2c1ccc(O)c2CN1CCNCC1 [Compound A19, (Z)-6-Hydroxy-2-{[5-(2-morpholinoethoxy)-1H-indol-3-yl]methylene}-7-(piperazin-1-ylmethyl)benzofuran-3(2H)-one dihydrochloride trihydrochloride] |  |
| 20 |  | CN(C)CCCN(C)Cc1c(O)ccc2c1O/C(=C\c1c[nH]c3ccccc13)C2=O [Compound A8, (Z)-2-[(1H-Indol-3-yl)methylene]-7-({[3-(dimethylamino)propyl](methyl)amino}methyl)-6-hydroxybenzofuran-3(2H)-one] |  |
| 19 |  | O=C1/C(=C/c2c[nH]c3ccccc23)Oc2c1ccc(O)c2CN1CCSCC1 [Compound A4, (Z)-2-[(1H-Indol-3-yl)methylene]-6-hydroxy-7-(thiomorpholinomethyl)benzofuran-3(2H)-one] |  |
|  | 88 | O=C1/C(=C/c2n[nH]c3ccccc23)Oc2c1cc(Cl)c(O)c2CN1CCNCC1 [Compound B13, (Z)-2-[(1H-Indazol-3-yl)methylene]-5-chloro-6-hydroxy-7-(piperazin-1-ylmethyl)benzofuran-3(2H)-one] |  |
| 56 |  | COC(=O)c1ccc2c(/C=C3\Oc4c(ccc(O)c4CN4CCNCC4)C3=O)c[nH]c2c1 [Compound A23, Methyl (Z)-3-{[6-hydroxy-3-oxo-7-(piperazin-1-ylmethyl)benzofuran-2(3H)-ylidene]methyl}-1H-indole-6-carboxylate] |  |
| 94 |  | Cc1ccc2c(/C=C3\Oc4c(cc(Cl)c(O)c4CN4CCNCC4)C3=O)c[nH]c2n1 [Compound A51, (Z)-5-Chloro-6-hydroxy-2-[(6-methyl-1H-pyrrolo[2,3-b]pyridin-3-yl)methylene]-7-(piperazin-1-ylmethyl)benzofuran-3(2H)-one trihydrochloride] |  |
|  | 93 | O=C1/C(=C/c2n[nH]c3ccc(Br)cc23)Oc2c1cc(Cl)c(O)c2CN1CCNCC1 [Compound B16, (Z)-5-Chloro-2-[(5-bromo-1H-indazol-3-yl)methylene]-6-hydroxy-7-(piperazin-1-ylmethyl)benzofuran-3(2H)-one] |  |
|  | 14 | CN1CCN(Cc2cc(Cl)cc3c2O/C(=C\c2n[nH]c4ccccc24)C3=O)CC1 [Compound B40, (Z)-2-[(1H-Indazol-3-yl)methylene]-5-chloro-7-[(4-methylpiperazin-1-yl)methyl]benzofuran-3(2H)-one] |  |

| inhibition at 0.1 µM (Table 1) [%] | inhibition at 0.1 µM (Table 2) [%] | SMILES | also measured |
| --- | --- | --- | --- |
| 40 |  | COc1ccc2c(c1CN1CCOCC1)O/C(=C\c1c[nH]c3ccccc13)C2=O [Compound A41, (Z)-2-[(1H-Indol-3-yl)methylene]-6-methoxy-7-(morpholinomethyl)benzofuran-3(2H)-one] |  |
|  | 88 | O=C1/C(=C/c2n[nH]c3ccccc23)Oc2c1ccc(O)c2CN1CCNCC1 [Compound B1, (Z)-2-[(1H-Indazol-3-yl)methylene]-6-hydroxy-7-(piperazin-1-ylmethyl)benzofuran-3(2H)-one] |  |
| 99 |  | O=C1/C(=C/c2c[nH]c3nc(Cl)ccc23)Oc2c1ccc(O)c2CN1CCNCC1 [Compound A46, (Z)-2-[(6-Chloro-1H-pyrrolo[2,3-b]pyridin-3-yl)methylene]-6-hydroxy-7-(piperazin-1-ylmethyl)benzofuran-3(2H)-one trihydrochloride] |  |
| 51 |  | CN(C)CCCN1CCN(Cc2c(O)ccc3c2O/C(=C\c2c[nH]c4ccccc24)C3=O)CC1 [Compound A1, (Z)-2-[(1H-Indol-3-yl)methylene]-7-({4-[3-(dimethylamino)propyl]piperazin-1-yl}methyl)-6-hydroxybenzofuran-3(2H)-one] |  |
|  | 41 | CN1CCN(Cc2c(O)ccc3c2O/C(=C\c2n[nH]c4ccccc24)C3=O)CC1 [Compound B4, (Z)-2-[(1H-Indazol-3-yl)methylene]-6-hydroxy-7-[(4-methylpiperazin-1-yl)methyl]benzofuran-3(2H)-one] |  |
| 60 |  | O=C1/C(=C/c2c[nH]c3cc([N+](=O)[O-])ccc23)Oc2c1ccc(O)c2CN1CCNCC1 [Compound A24, (Z)-6-Hydroxy-2-[(6-nitro-1H-indol-3-yl)methylene]-7-(piperazin-1-ylmethyl)benzofuran-3(2H)-one dihydrochloride] |  |
| 98 |  | O=C1/C(=C/c2c[nH]c3nc(Br)ccc23)Oc2c1ccc(O)c2CN1CCNCC1 [Compound A47, (Z)-2-[(6-Bromo-1H-pyrrolo[2,3-b]pyridin-3-yl)methylene]-6-hydroxy-7-(piperazin-1-ylmethyl)benzofuran-3(2H)-one trihydrochloride] |  |
| 71 |  | O=C1/C(=C/c2c[nH]c3ccccc23)Oc2c1cc(-c1ccccc1)c(O)c2CN1CCNCC1 [Compound A13, (Z)-2-[(1H-Indol-3-yl)methylene]-6-hydroxy-5-phenyl-7-(piperazin-1-ylmethyl)benzofuran-3(2H)-one dihydrochloride] |  |
|  | 81 | O=C1/C(=C/c2n[nH]c3ccc(F)cc23)Oc2c1ccc(O)c2CN1CCNCC1 [Compound B8, (Z)-6-Hydroxy-7-(piperazin-1-ylmethyl)-2-[(5-fluoro-1H-indazol-3-yl)methylene]benzofuran-3(2H)-one] |  |
|  | 94 | O=C1/C(=C/c2n[nH]c3ccccc23)Oc2c1ccc(OCCO)c2CN1CCNCC1 [Compound B34, (Z)-2-[(1H-Indazol-3-yl)methylene]-6-(2-hydroxyethoxy)-7-(piperazin-1-ylmethyl)benzofuran-3(2H)-one] |  |
| 29 |  | O=C1/C(=C/c2c[nH]c3c([N+](=O)[O-])cccc23)Oc2c1ccc(O)c2CN1CCNCC1 [Compound A27, (Z)-6-Hydroxy-2-[(7-nitro-1H-indol-3-yl)methylene]-7-(piperazin-1-ylmethyl)benzofuran-3(2H)-one dihydrochloride] |  |
|  | 31 | O=C1/C(=C/c2n[nH]c3ccccc23)Oc2c1ccc(O)c2C(=O)N1CCNCC1 [Compound B36, (Z)-2-[(1H-Indazol-3-yl)methylene]-6-hydroxy-7-(piperazine-1-carbonyl)benzofuran-3(2H)-one] |  |
|  | 22 | O=C1/C(=C/c2n[nH]c3ccccc23)Oc2c1ccc(O)c2CN1CCOCC1 [Compound B5, (Z)-2-[(1H-Indazol-3-yl)methylene]-6-hydroxy-7-(morpholinomethyl)benzofuran-3(2H)-one] |  |
| 87 |  | COc1cc(CN2CCNCC2)c2c(c1)C(=O)/C(=C/c1c[nH]c3ccccc13)O2 [Compound A14, (Z)-2-[(1H-Indol-3-yl)methylene]-5-methoxy-7-(piperazin-1-ylmethyl)benzofuran-3(2H)-one dihydrochloride] |  |
|  | 63 | COc1ccc2c(c1CN1CCN(C)CC1)O/C(=C\c1n[nH]c3ccccc13)C2=O [Compound B32, (Z)-2-[(1H-Indazol-3-yl)methylene]-6-methoxy-7-[(4-methylpiperazin-1-yl)methyl]benzofuran-3(2H)-one] |  |
| 47 |  | Cc1ccc(S(=O)(=O)n2cc(/C=C3\Oc4c(ccc(O)c4CN4CCN(C)CC4)C3=O)c3ccccc32)cc1 [Compound A31, (Z)-6-Hydroxy-7-[(4-methylpiperazin-1-yl)methyl]-2-[(1-tosyl-1H-indol-3-yl)methylene]benzofuran-3(2H)-one] |  |
